Paper PMC4203769, “The “Genomic Storm” Induced by Bacterial Endotoxin Is Calmed by a Nuclear Transport Modifier That Attenuates Localized and Systemic Inflammation” (PLoS ONE, 2014)
“And” between values parts separate entries of the source, which are not always exact repeats. Equal values may be shown once. “Also recorded” adds a separate entry of the source. Positions of bridges follow the written chain, without caps; N, C: chain ends. Residues, ends and D or L forms follow the SMILES beside them.

Columns and labels:
[1] = system: primary macrophages challenged with LPS; assay: Cell viability of LPS-challenged primary macrophages; type: cell-based, mouse (C57BL/6); conditions: LPS-challenged BMDMs, 30 µM peptide; data not shown; listed as NTM
[2] = system: mouse blood cells and organs; conditions: after i.p. injection; receptor- and endocytosis-independent mechanism; cited from earlier work
Method: NTM is rapidly delivered (within 30–60 min after i.p. injection) through a receptor-and endocytosis-independent mechanism to mouse blood cells and organs where it reaches sufficient intracellular concentration to engender localized (lung) and systemic (endotoxic shock) anti-inflammatory effects. Thus, the microvascular compartment of multiple organs that are vulnerable to LPS toxicity (e.g. lungs, liver, and kidneys) can be protected, [22]. Unlike anti-inflammatory glucocorticosteroids which produced discordant results in sepsis clinical trials, [33] and have potential ...

[3] = Solubility of peptides in water; type: physicochemical
From the text: A fragment-linked peptide strategy to analyze signal-dependent nuclear transport is based on fusing a motif from the nuclear localization sequence (NLS) region of the NF-κB1/p50 subunit with the signal sequence hydrophobic region (SSHR) of human fibroblast growth factor 4 [7], [19]. NLS- and SSHR-containing NTMs (SN50, cSN50 and cSN50.1; see Table 1 for their composition and solubility) were designed to function at the nuclear transport level by binding to importins α during stimulus-initiated signaling and thereby modulate nuclear import of NLS-bearing SRTFs. The SSHR motif allows peptides to cross the plasma membrane of cells in culture or in experimental animals through an ATP- and endosome-independent mechanism. […] The functional utility of NTMs has been reported in numerous preclinical models of inflammation caused by microbial and autoimmune insults, [21]–[26].

Row | SMILES | effect on cell viability / cytotoxicity [1] | time to delivery to mouse blood cells and organs [2] [min] | Solubility in Water [3]
1 | CSCC[C@@H]1NC(=O)[C@H](CC(C)C)NC(=O)[C@H](CCCCN)NC(=O)[C@H](CCC(N)=O)NC(=O)[C@H](CCCNC(=N)N)NC(=O)[C@H](CCCCN)NC(=O)[C@H](CCCNC(=N)N)NC(=O)[C@H](CCC(N)=O)NC(=O)[C@H](C(C)C)NC(=O)[C@@H](NC(=O)[C@@H]2CCCN2C(=O)[C@H](C)NC(=O)[C@H](CC(C)C)NC(=O)[C@H](CC(C)C)NC(=O)[C@H](C)NC(=O)[C@H](CC(C)C)NC(=O)[C@H](CC(C)C)NC(=O)[C@@H](NC(=O)[C@H](C)NC(=O)[C@@H]2CCCN2C(=O)[C@H](CC(C)C)NC(=O)[C@H](CC(C)C)NC(=O)[C@H](C)NC(=O)[C@@H](NC(=O)[C@H](C)NC(=O)[C@H](C)N)C(C)C)C(C)C)CSSC[C@@H](C(=O)O)NC(=O)[C@@H]2CCCN2C1=O [cSN50.1] (H-AAVALLPAVLLALLAPCVQRKRQKLMPC-OH; disulfide 17-28) | without altering expression of housekeeping genes or being cytotoxic; also recorded: not associated with changes in cell viability | 30 to 60 | 100 mg/mL and 33.5 mM
2 | CSCC[C@@H]1NC(=O)[C@H](CC(C)C)NC(=O)[C@H](CCCCN)NC(=O)[C@H](CCC(N)=O)NC(=O)[C@H](CCCNC(=N)N)NC(=O)[C@H](CCCCN)NC(=O)[C@H](CCCNC(=N)N)NC(=O)[C@H](CCC(N)=O)NC(=O)[C@H](C(C)C)NC(=O)[C@H](Cc2ccc(O)cc2)NC(=O)[C@@H](NC(=O)[C@@H]2CCCN2C(=O)[C@H](C)NC(=O)[C@H](CC(C)C)NC(=O)[C@H](CC(C)C)NC(=O)[C@H](C)NC(=O)[C@H](CC(C)C)NC(=O)[C@H](CC(C)C)NC(=O)[C@@H](NC(=O)[C@H](C)NC(=O)[C@@H]2CCCN2C(=O)[C@H](CC(C)C)NC(=O)[C@H](CC(C)C)NC(=O)[C@H](C)NC(=O)[C@@H](NC(=O)[C@H](C)NC(=O)[C@H](C)N)C(C)C)C(C)C)CSSC[C@@H](C(=O)O)NC(=O)[C@@H]2CCCN2C1=O [cSN50, reference compound] (H-AAVALLPAVLLALLAPCYVQRKRQKLMPC-OH; disulfide 17-29) | – | – | 38 mg/mL and 12.1 mM
